Laboratory results reported in PubChem BioAssay (NCI).
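All cell lines were grown in 96-well plates and treated with compound for 48 hours. GI50 = concentration required for 50% inhibition of growth. TGI marks complete inhibition of growth.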

Experiments:
Test in all cases: NCI tumour cell line growth inhibition, 48 h
DMS 114 small cell lung = tested on: DMS 114 small cell lung
SNB-75 CNS = tested on: SNB-75 CNS
HL-60(TB) leukemia = tested on: HL-60(TB) leukemia
NCI/ADR-RES ovarian = tested on: NCI/ADR-RES ovarian
UACC-257 melanoma = tested on: UACC-257 melanoma
HT29 colon = tested on: HT29 colon
HOP-62 NSCLC = tested on: HOP-62 NSCLC
UACC-62 melanoma = tested on: UACC-62 melanoma
P388/ADR leukemia = tested on: P388/ADR leukemia
SN12C renal = tested on: SN12C renal
CAKI-1 renal = tested on: CAKI-1 renal
SN12K1 renal = tested on: SN12K1 renal
COLO 205 colon = tested on: COLO 205 colon
A549 NSCLC = tested on: A549 NSCLC
SNB-78 CNS = tested on: SNB-78 CNS
IGROV1 ovarian = tested on: IGROV1 ovarian
MOLT-4 leukemia = tested on: MOLT-4 leukemia
NCI-H23 lung = tested on: NCI-H23 lung
OVCAR-5 ovarian = tested on: OVCAR-5 ovarian
HCC-2998 colon = tested on: HCC-2998 colon
NCI-H522 lung = tested on: NCI-H522 lung
HOP-92 NSCLC = tested on: HOP-92 NSCLC
UO-31 renal = tested on: UO-31 renal
KM20L2 colon = tested on: KM20L2 colon
CCRF-CEM leukemia = tested on: CCRF-CEM leukemia
OVCAR-8 ovarian = tested on: OVCAR-8 ovarian
RXF 393 renal = tested on: RXF 393 renal
K-562 leukemia = tested on: K-562 leukemia
MALME-3M melanoma = tested on: MALME-3M melanoma
SW-620 colon = tested on: SW-620 colon
HOP-18 NSCLC = tested on: HOP-18 NSCLC
SF-268 CNS = tested on: SF-268 CNS
EKVX NSCLC = tested on: EKVX NSCLC
DLD-1 colon = tested on: DLD-1 colon
OVCAR-3 ovarian = tested on: OVCAR-3 ovarian
U251 CNS = tested on: U251 CNS
P388 leukemia = tested on: P388 leukemia
DMS 273 small cell lung = tested on: DMS 273 small cell lung
M19-MEL melanoma = tested on: M19-MEL melanoma
KM12 colon = tested on: KM12 colon
NCI-H226 lung = tested on: NCI-H226 lung
NCI-H460 lung = tested on: NCI-H460 lung
HCT-116 colon = tested on: HCT-116 colon
OVCAR-4 ovarian = tested on: OVCAR-4 ovarian
SK-MEL-2 melanoma = tested on: SK-MEL-2 melanoma
RPMI-8226 leukemia = tested on: RPMI-8226 leukemia
MCF7 breast = tested on: MCF7 breast
XF 498 CNS = tested on: XF 498 CNS
SF-295 CNS = tested on: SF-295 CNS
SK-MEL-5 melanoma = tested on: SK-MEL-5 melanoma
SK-MEL-28 melanoma = tested on: SK-MEL-28 melanoma
HCT-15 colon = tested on: HCT-15 colon
A498 renal = tested on: A498 renal
SK-OV-3 ovarian = tested on: SK-OV-3 ovarian
LOX IMVI melanoma = tested on: LOX IMVI melanoma

For `[CH3][Sn]([CH3])([CH3])[S]C(=S)N1CCOCC1`, the GI50 (DMS 114 small cell lung) was 772 nM, the TGI (DMS 114 small cell lung) was 3720 nM and the GI50 (SNB-75 CNS) was 3340 nM. The TGI (SNB-75 CNS) was > 31400 nM, the GI50 (HL-60(TB) leukemia) was 217 nM and the TGI (HL-60(TB) leukemia) was 1300 nM. The GI50 (NCI/ADR-RES ovarian) was 1820 nM, the TGI (NCI/ADR-RES ovarian) was 11200 nM and the GI50 (UACC-257 melanoma) was 1220 nM. It also gave a TGI (UACC-257 melanoma) of 14900 nM, a GI50 (HT29 colon) of 280 nM and a TGI (HT29 colon) of 1500 nM. For the same compound, the GI50 (HOP-62 NSCLC) was 2280 nM, the TGI (HOP-62 NSCLC) was 4860 nM and the GI50 (UACC-62 melanoma) was 553 nM. For the same compound, the GI50 (P388/ADR leukemia) was 136 nM, the TGI (P388/ADR leukemia) was 902 nM and the GI50 (SN12C renal) was 7550 nM. The TGI (SN12C renal) was > 100000 nM, the GI50 (CAKI-1 renal) was 4000 nM and the TGI (CAKI-1 renal) was > 46400 nM. For the same compound, the GI50 (SN12K1 renal) was 1120 nM, the TGI (SN12K1 renal) was 12100 nM and the GI50 (COLO 205 colon) was 78.6 nM. For the same compound, the TGI (COLO 205 colon) was 432 nM, the GI50 (A549 NSCLC) was 1070 nM and the TGI (A549 NSCLC) was > 92700 nM. For the same compound, the GI50 (SNB-78 CNS) was 9940 nM, the TGI (SNB-78 CNS) was > 100000 nM and the GI50 (IGROV1 ovarian) was 690 nM. It also gave a TGI (IGROV1 ovarian) of 8520 nM, a GI50 (MOLT-4 leukemia) of 135 nM and a TGI (MOLT-4 leukemia) of 4050 nM. The GI50 (NCI-H23 lung) was 345 nM, the TGI (NCI-H23 lung) was 4940 nM and the GI50 (OVCAR-5 ovarian) was 2500 nM. The TGI (OVCAR-5 ovarian) was > 28200 nM, the GI50 (HCC-2998 colon) was 3410 nM and the TGI (HCC-2998 colon) was 15700 nM. It also gave a GI50 (NCI-H522 lung) of 102 nM, a TGI (NCI-H522 lung) of 420 nM and a GI50 (HOP-92 NSCLC) of 1840 nM. The TGI (HOP-92 NSCLC) was 6480 nM, the GI50 (UO-31 renal) was 6240 nM and the TGI (UO-31 renal) was > 25100 nM. For the same compound, the GI50 (KM20L2 colon) was 789 nM, the TGI (KM20L2 colon) was 8200 nM and the GI50 (CCRF-CEM leukemia) was 70.1 nM. The TGI (CCRF-CEM leukemia) was 1670 nM, the GI50 (OVCAR-8 ovarian) was 3690 nM and the TGI (OVCAR-8 ovarian) was > 85400 nM. The GI50 (RXF 393 renal) was 700 nM, the GI50 (K-562 leukemia) was 360 nM and the TGI (K-562 leukemia) was 5840 nM. For the same compound, the GI50 (MALME-3M melanoma) was 3490 nM, the TGI (MALME-3M melanoma) was 14800 nM and the GI50 (SW-620 colon) was 208 nM. The TGI (SW-620 colon) was 2420 nM, the GI50 (HOP-18 NSCLC) was 3850 nM and the TGI (HOP-18 NSCLC) was > 100000 nM. For the same compound, the GI50 (SF-268 CNS) was 3650 nM, the TGI (SF-268 CNS) was > 100000 nM and the GI50 (EKVX NSCLC) was 4960 nM. The TGI (EKVX NSCLC) was > 100000 nM, the GI50 (DLD-1 colon) was 162 nM and the TGI (DLD-1 colon) was 5540 nM. For the same compound, the GI50 (OVCAR-3 ovarian) was 331 nM, the TGI (OVCAR-3 ovarian) was 1320 nM and the GI50 (U251 CNS) was 2820 nM. For the same compound, the TGI (U251 CNS) was 11400 nM, the GI50 (P388 leukemia) was 82 nM and the TGI (P388 leukemia) was 389 nM. For the same compound, the GI50 (DMS 273 small cell lung) was 508 nM, the TGI (DMS 273 small cell lung) was 6130 nM and the GI50 (M19-MEL melanoma) was 730 nM. For the same compound, the TGI (M19-MEL melanoma) was 31700 nM, the GI50 (KM12 colon) was 2110 nM and the TGI (KM12 colon) was 11100 nM. For the same compound, the GI50 (NCI-H226 lung) was 2720 nM, the TGI (NCI-H226 lung) was 17000 nM and the GI50 (NCI-H460 lung) was 1050 nM. The TGI (NCI-H460 lung) was 4380 nM, the GI50 (HCT-116 colon) was 146 nM and the TGI (HCT-116 colon) was 2030 nM. For the same compound, the GI50 (OVCAR-4 ovarian) was 818 nM, the TGI (OVCAR-4 ovarian) was 4210 nM and the GI50 (SK-MEL-2 melanoma) was 1510 nM. For the same compound, the TGI (SK-MEL-2 melanoma) was 4750 nM, the GI50 (RPMI-8226 leukemia) was 362 nM and the TGI (RPMI-8226 leukemia) was 2220 nM. The GI50 (MCF7 breast) was 34.2 nM, the TGI (MCF7 breast) was 619 nM and the GI50 (XF 498 CNS) was 643 nM. The TGI (XF 498 CNS) was 5970 nM, the GI50 (SF-295 CNS) was 3510 nM and the TGI (SF-295 CNS) was 13200 nM. The GI50 (SK-MEL-5 melanoma) was 881 nM, the TGI (SK-MEL-5 melanoma) was 2620 nM and the GI50 (SK-MEL-28 melanoma) was 3490 nM. The TGI (SK-MEL-28 melanoma) was 33600 nM, the GI50 (HCT-15 colon) was 1810 nM and the TGI (HCT-15 colon) was > 100000 nM. For the same compound, the GI50 (A498 renal) was 15300 nM, the TGI (A498 renal) was 73800 nM and the GI50 (SK-OV-3 ovarian) was 9810 nM. It also gave a TGI (SK-OV-3 ovarian) of 29300 nM, a GI50 (LOX IMVI melanoma) of 1390 nM and a TGI (LOX IMVI melanoma) of 6750 nM.
